Source: US10703756B2, “Pyrrolo[2,3-D]pyrimidinyl, pyrrolo[2,3-B]pyrazinyl, pyrrolo[2,3-B]pyridinyl acrylamides and epoxides thereof” (Pfizer Inc., priority 2015, dated 2020)

Columns and labels:
JAK3 enzyme [1] = biological target: T1, JAK3 enzyme (Homo sapiens, UniProt P52333); test: JAK Caliper Enzyme Assay at 4 μM ATP; assay type: biochemical
T1 sequence (P52333 1-1124): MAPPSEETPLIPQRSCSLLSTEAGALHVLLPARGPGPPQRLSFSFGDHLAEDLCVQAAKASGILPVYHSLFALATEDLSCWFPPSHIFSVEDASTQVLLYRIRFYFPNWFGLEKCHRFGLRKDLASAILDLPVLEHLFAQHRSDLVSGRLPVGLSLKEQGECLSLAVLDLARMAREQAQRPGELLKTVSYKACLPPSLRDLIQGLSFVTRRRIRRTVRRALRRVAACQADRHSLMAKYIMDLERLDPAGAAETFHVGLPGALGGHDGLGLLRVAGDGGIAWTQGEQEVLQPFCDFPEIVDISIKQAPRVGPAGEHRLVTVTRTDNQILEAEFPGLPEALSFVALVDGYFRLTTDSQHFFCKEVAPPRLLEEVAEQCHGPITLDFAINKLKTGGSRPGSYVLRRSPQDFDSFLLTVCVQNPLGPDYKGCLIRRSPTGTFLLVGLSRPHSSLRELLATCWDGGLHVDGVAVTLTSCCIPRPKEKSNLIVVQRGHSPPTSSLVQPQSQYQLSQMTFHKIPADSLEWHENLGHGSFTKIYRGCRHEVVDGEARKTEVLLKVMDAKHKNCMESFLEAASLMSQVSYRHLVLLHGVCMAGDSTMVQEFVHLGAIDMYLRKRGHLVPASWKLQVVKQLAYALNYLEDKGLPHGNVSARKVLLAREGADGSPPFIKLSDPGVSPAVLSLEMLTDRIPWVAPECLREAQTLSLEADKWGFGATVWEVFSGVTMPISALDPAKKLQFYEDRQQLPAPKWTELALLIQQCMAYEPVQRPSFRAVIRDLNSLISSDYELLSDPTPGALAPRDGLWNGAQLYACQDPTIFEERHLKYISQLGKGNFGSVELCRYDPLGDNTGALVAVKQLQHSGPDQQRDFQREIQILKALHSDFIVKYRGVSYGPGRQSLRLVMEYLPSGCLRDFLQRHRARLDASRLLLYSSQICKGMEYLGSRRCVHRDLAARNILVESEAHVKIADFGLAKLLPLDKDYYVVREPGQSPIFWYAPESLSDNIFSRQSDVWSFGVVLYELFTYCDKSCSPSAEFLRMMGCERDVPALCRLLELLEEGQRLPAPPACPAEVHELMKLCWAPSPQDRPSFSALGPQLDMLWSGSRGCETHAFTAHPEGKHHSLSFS
Method in brief: (§1)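 Read-out: microfluidic mobility-shift separation quantifying substrate peptide versus phosphopeptide. Compounds were tested as 11-point half-log dilutions, top 600 μM in DMSO before transfer. Enzyme level and reaction time were tuned for each prep so conversion stayed at 20%-30%.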

JAK3 enzyme [2] = biological target: T1, JAK3 enzyme; test: JAK Caliper Enzyme Assay at 1 mM ATP; assay type: biochemical
Method in brief: as §1

Row | Compound | IC50 (JAK3 enzyme [1]) | IC50 (JAK3 enzyme [2])
1 | C=CC(=O)N1CCN(c2cnc3[nH]cc(C(=O)N[C@@H]4COC[C@@H]4CC(C)C)c3n2)CC1(C)C [Example 142, 2-(4-acryloyl-3,3-dimethylpiperazin-1-yl)-N-[(3S,4R)-4-(2-methylpropyl)tetrahydrofuran-3-yl]-5H-pyrrolo[2,3-b]pyrazine-7-carboxamide] | 60.4 nM | 4430 nM
2 | C=CC(=O)N1C[C@H](CO)C[C@H](Nc2ncnc3[nH]ccc23)C1 (single isomer, unassigned) [Example 99] | 89.2 nM | 8990 nM
3 | C=CC(=O)N1CCN(c2cnc3[nH]cc(C(=O)N[C@H]4CCOC4)c3n2)CC1(C)C [Example 150, 2-(4-acryloyl-3,3-dimethylpiperazin-1-yl)-N-[(3S)-tetrahydrofuran-3-yl] 5H-pyrrolo[2,3-b]pyrazine-7-carboxamide] | 8.09 nM | 1110 nM
4 | C=CC(=O)N1C[C@@H](Nc2ncnc3[nH]ccc23)CC[C@H]1COC (single isomer, unassigned) [Example 96] | 433 nM | > 10000 nM
5 | C=CC(=O)N1CCC[C@@H]1COc1cnc2[nH]cc(C(=O)N[C@@H](C)COC)c2n1 (single isomer, unassigned) [Example 9] | 8.86 nM | 1210 nM
6 | C=CC(=O)N1CC[C@@H](CNc2cnc3[nH]cc(C(=O)N[C@H](C)COC)c3n2)C1 (single isomer, unassigned) [Example 20] | 5.42 nM | 926 nM
7 | C=CC(=O)N1CC[C@@H](Nc2cnc3[nH]cc(C(=O)NCCC(F)(F)F)c3n2)C[C@H]1C (single isomer, unassigned) [Example 23] | 3.58 nM | 651 nM
8 | C=CC(=O)N1CC[C@@H](OC)[C@@H](Nc2cnc3[nH]cc(C(=O)N[C@H](C)COC)c3n2)C1 (single isomer, unassigned) [Example 5] | 0.408 nM | 46 nM
9 | C=CC(=O)N1CC[C@H](CNc2cnc3[nH]cc(C(=O)N[C@H](C)COC)c3n2)C1 (single isomer, unassigned) [Example 21] | 4.69 nM | 633 nM
10 | C=CC(=O)N1CCN(c2cnc3[nH]cc(C(=O)N[C@@H]4COC[C@@H]4c4ccc(F)cc4)c3n2)CC1(C)C (stereo in doubt) [Example 143, 2-(4-acryloyl-3,3-dimethylpiperazin-1-yl)-N-[4-(4-fluorophenyl)tetrahydrofuran-3-yl]-5H-pyrrolo[2,3-b]pyrazine-7-carboxamide] | 22.6 nM | 1920 nM
11 | C=CC(=O)N1CCC(N(C)c2cnc3[nH]cc(C(=O)N4CCC4)c3n2)CC1 [Example 62, 1-(4-{[7-(azetidin-1-ylcarbonyl)-5H-pyrrolo[2,3-b]pyrazin-2-yl](methyl)amino}piperidin-1-yl)prop-2-en-1-one] | 13.5 nM | 2700 nM
12 | C=CC(=O)N1CCC(Oc2cnc3[nH]cc([C@H](C)O)c3n2)CC1 (single isomer, unassigned) [Example 118] | 16.1 nM | 1890 nM

More lines, now with the values ahead:

Row | IC50 (JAK3 enzyme [1]) | IC50 (JAK3 enzyme [2]) | Compound
13 | 6.37 nM | 846 nM | C=CC(=O)N1CC[C@H](Nc2cnc3[nH]cc(C(=O)NCCC(F)(F)F)c3n2)C1 (single isomer, unassigned) [Example 255]
14 | 20.6 nM | 2900 nM | C=CC(=O)N1CCN(c2cnc3[nH]cc(C(=O)N[C@@H](CO)Cc4cccc(C#N)c4)c3n2)CC1(C)C [Example 157, 2-(4-acryloyl-3,3-dimethylpiperazin-1-yl)-N-[(2R)-1-(3-cyanophenyl)-3-hydroxypropan-2-yl]-5H-pyrrolo[2,3-b]pyrazine-7-carboxamide]
15 | 6.79 nM | 1100 nM | C=CC(=O)N1C[C@H](Nc2cnc3[nH]cc(C(=O)NCCOC)c3n2)C[C@H]1COCC [Example 233, 2-{[(3R,5S)-1-acryloyl-5-(ethoxymethyl)pyrrolidin-3-yl]amino}-N-(2-methoxyethyl)-5H-pyrrolo[2,3-b]pyrazine-7-carboxamide]
16 | 20.8 nM | 2150 nM | C=CC(=O)N1CCN(c2cnc3[nH]cc(C(=O)N[C@@H]4C[C@H]4C(F)(F)F)c3n2)CC1(C)C [Example 290, 2-(4-acryloyl-3,3-dimethylpiperazin-1-yl)-N-[(1R,2R)-2-(trifluoromethyl)cyclopropyl]-5H-pyrrolo[2,3-b]pyrazine-7-carboxamide]
17 | 4.34 nM | 726 nM | C=CC(=O)N1CCN(c2cnc3[nH]cc(C(=O)NC4CCOC4)c3n2)CC1(C)C (racemic) [Example 164, Racemic-2-(4-acryloyl-3,3-dimethylpiperazin-1-yl)-N-(tetrahydrofuran-3-yl)-5H-pyrrolo[2,3-b]pyrazine-7-carboxamide]
18 | 4.81 nM | 731 nM | C=CC(=O)N1CCN(c2cnc3[nH]cc(C(=O)N[C@@H]4C[C@H]4C(F)(F)F)c3n2)C[C@@H]1CC(C)C [Example 303, 2-[(3S)-4-acryloyl-3-(2-methylpropyl)piperazin-1-yl]-N-[(1R,2R)-2-(trifluoromethyl)cyclopropyl]-5H-pyrrolo[2,3-b]pyrazine-7-carboxamide]
19 | 40.9 nM | 4440 nM | C=CC(=O)N1CCC(Oc2cnc3[nH]cc(C(=O)NCc4ccccc4F)c3c2)CC1 [Example 346, 5-[(1-acryloylpiperidin-4-yl)oxy]-N-(2-fluorobenzyl)-1H-pyrrolo[2,3-b]pyridine-3-carboxamide]
20 | 4.92 nM | 721 nM | C=CC(=O)N1CCN(c2cnc3[nH]cc(C(=O)NC(CO)CCCC)c3n2)CC1(C)C (racemic) [Example 155, Racemic-2-(4-acryloyl-3,3-dimethylpiperazin-1-yl)-N-(1-hydroxyhexan-2-yl)-5H-pyrrolo[2,3-b]pyrazine-7-carboxamide]
21 | 75.1 nM | 4880 nM | C=CC(=O)N1CCC(Oc2cnc3[nH]cc(C(=O)NCC4CC4)c3c2)CC1 [Example 343, 5-[(1-acryloylpiperidin-4-yl)oxy]-N-(cyclopropylmethyl)-1H-pyrrolo[2,3-b]pyridine-3-carboxamide]
22 | 12.8 nM | 1260 nM | C=CC(=O)N1CCN(c2cnc3[nH]cc(C(=O)NC4CC(F)(F)C4)c3n2)CC1(C)C [Example 325, 2-(4-acryloyl-3,3-dimethylpiperazin-1-yl)-N-(3,3-difluorocyclobutyl)-5H-pyrrolo[2,3-b]pyrazine-7-carboxamide]
23 | 3.34 nM | 829 nM | C=CC(=O)N1C[C@H](C2CC2)[C@H](Nc2cnc3[nH]cc(C(=O)NCCOC)c3n2)C1 [Example 247, 2-{[(3S,4S)-1-acryloyl-4-cyclopropylpyrrolidin-3-yl]amino}-N-(2-methoxyethyl)-5H-pyrrolo[2,3-b]pyrazine-7-carboxamide]
24 | 31.4 nM | 2780 nM | C=CC(=O)N1CCC(Oc2cnc3[nH]cc(C(=O)NCCC(F)(F)F)c3c2)CC1 [Example 338, 5-[(1-acryloylpiperidin-4-yl)oxy]-N-(3,3,3-trifluoropropyl)-1H-pyrrolo[2,3-b]pyridine-3-carboxamide]
25 | 0.327 nM | 30 nM | C=CC(=O)N1CC[C@@H](Nc2cnc3[nH]cc(C(=O)N[C@@H](C)COC)c3n2)[C@@H](OC)C1 (single isomer, unassigned) [Example 355]
26 | 17.2 nM | 2540 nM | C=CC(=O)N1CC[C@H](Nc2cnc3[nH]cc(C(=O)NCC(F)(F)F)c3n2)C1 (single isomer, unassigned) [Example 254]
27 | 6.99 nM | 734 nM | C=CC(=O)N1CCC(Oc2cnc3[nH]cc(C(=O)NC[C@@]4(O)CCCC[C@H]4F)c3n2)CC1 [Example 208, 2-[(1-acryloylpiperidin-4-yl)oxy]-N-{[(2R)-2-fluoro-1-hydroxycyclohexyl]methyl}-5H-pyrrolo[2,3-b]pyrazine-7-carboxamide]
28 | 180 nM | > 10000 nM | C=CC(=O)N1C[C@H](Nc2cnc3[nH]cc(C(=O)NCCOC)c3n2)[C@H](C2CC2)C1 [Example 259, 2-{[(3R,4R)-1-acryloyl-4-cyclopropylpyrrolidin-3-yl]amino}-N-(2-methoxyethyl)-5H-pyrrolo[2,3-b]pyrazine-7-carboxamide]
29 | 48.7 nM | 5330 nM | C=CC(=O)N1C[C@@H](C)[C@@H](Nc2cnc3[nH]cc(C(=O)NCC)c3n2)C1 (stereo in doubt) [Example 248, 2-[(1-acryloyl-4-methylpyrrolidin-3-yl)amino]-N-ethyl-5H-pyrrolo[2,3-b]pyrazine-7-carboxamide]
